Results published in patent US20100056497A1, “AMIDE DERIVATIVE” (DAINIPPON SUMITOMO PHARMA CO., LTD, priority 2007, published 2010).
Structures can show the parent of a compound that is named as a salt.

molecular target: T1, Recombinant human renin (Homo sapiens, UniProt P00797); assay: In vitro renin inhibitory activity assay (fluorescence, FRET peptide substrate); type: biochemical; conditions: 37° C., one hour, substrate 4 μM, pH 7.4
T1 sequence (P00797 67-406): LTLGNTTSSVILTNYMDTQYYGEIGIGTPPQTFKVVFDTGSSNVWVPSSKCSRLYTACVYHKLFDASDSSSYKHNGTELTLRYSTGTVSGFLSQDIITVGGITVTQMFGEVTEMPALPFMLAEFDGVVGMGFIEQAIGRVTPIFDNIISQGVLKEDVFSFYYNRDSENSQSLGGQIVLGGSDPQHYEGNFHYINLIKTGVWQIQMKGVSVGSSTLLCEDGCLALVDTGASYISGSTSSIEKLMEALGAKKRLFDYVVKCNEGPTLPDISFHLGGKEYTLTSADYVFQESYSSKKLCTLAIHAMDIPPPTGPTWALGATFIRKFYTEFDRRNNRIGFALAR
Procedure: In Vitro Renin Inhibitory Activity Assay
Recombinant human renin (50 ng) was reacted in 0.1M BEPES buffer (pH 7.4) containing 0.1M NaCl, 1 mM EDTA and 0.1 mg/mL BSA together with a substrate and a test compound at 37° C. for one hour. As the substrate, Arg-Glu(EDANS)-Ile-His-Pro-Phe-His-Leu-Val-Ile-His-Thr-Lys(DABCYL)-Arg or DABCYL-γ-Abu-Ile-His-Pro-Phe-His-Leu-Val-Ile-His-Thr-EDANS was added in such an amount so that the final concentration thereof became 4 μM. The elevated fluorescence intensity at the exciting wavelength 340 nm and the fluorescence wavelength 500 nm was measured by a fluorescence plate reader. The concentration of a test compound to be needed to inhibit an enzyme activity in the presence of a test compound in plural concentrations by 50% was calculated as an IC50 value.
The amino acid sequence disclosed in Seq ID:1 is an amino acid sequence used in the renin inhibitory activity assay.
The amino acid sequence disclosed in Seq ID:2 is an amino acid sequence used in the renin inhibitory activity assay.

`COCCCOc1cc(C(=O)N(C(C)C)[C@@H]2CC[C@H](CCN(C(=O)Cc3ccccc3Cl)C3CC3)NC2)ccc1OC` [Example 72, N-((3R,6R)-6-{2-[[(2-chlorophenyl)acetyl](cyclopropyl)amino]ethyl}piperidin-3-yl)-N-isopropyl-4-methoxy-3-(3-methoxypropoxy)benzamide trifluoroacetate] and `COCCCOc1cc(C(=O)N(C(C)C)[C@@H]2CC[C@H](CCN(C(=O)Cc3ccccc3OC)C3CC3)NC2)ccc1OC` [Example 73, N-[(3R,6R)-6-(2-{Cyclopropyl[(2-methoxyphenyl)acetyl]amino}ethyl)piperidin-3-yl]-N-isopropyl-4-methoxy-3-(3-methoxypropoxy)benzamide trifluoroacetate] are within 1.5-fold of each other in IC50: 3.7 nM for the first, 4.6 nM for the second.

`COCCCOc1cc(C(=O)N(C(C)C)[C@@H]2CC[C@H](CCN(C(=O)Cc3ccccc3C(F)(F)F)C3CC3)NC2)ccc1OC` [Example 74, N-{(3R,6R)-6-[2-(Cyclopropyl{[2-(trifluoromethyl)phenyl]acetyl}amino)ethyl]-piperidin-3-yl}-N-isopropyl-4-methoxy-3-(3-methoxypropoxy)benzamide trifluoroacetate] and `COCCCOc1cc(C(=O)N(C(C)C)[C@@H]2CC[C@H](CCN(C(=O)Cc3ccccn3)C3CC3)NC2)ccc1OC` [Example 75, N-((3R,6R)-6-{2-[Cyclopropyl(pyridin-2-ylacetyl)amino]ethyl}piperidin-3-yl)-N-isopropyl-4-methoxy-3-(3-methoxypropoxy)benzamide trifluoroacetate] are within 1.5-fold of each other in IC50: 5.1 nM for the first, 4.7 nM for the second.

Going from `COCCCOc1cc(C(=O)N(C(C)C)[C@@H]2CC[C@H](CCN(C(=O)Cc3cccnc3)C3CC3)NC2)ccc1OC` [Example 78, N-((3R,6R)-6-{2-[Cyclopropyl(pyridin-3-ylacetyl)amino]ethyl}piperidin-3-yl)-N-isopropyl-4-methoxy-3-(3-methoxypropoxy)benzamide trifluoroacetate] to `COCCCOc1cc(C(=O)N(C(C)C)[C@@H]2CC[C@H](CCN(C(=O)Cc3cccc(C(=O)O)c3)C3CC3)NC2)ccc1OC` [Example 86, 3-(2-{Cyclopropyl[2-((2R,5R)-5-{isopropyl[4-methoxy-3-(3-methoxypropoxy)-benzoyl]amino}piperidin-2-yl)ethyl]amino}-2-oxoethyl)benzoic acid hydrochloride], the IC50 rises from 0.79 nM to 4 nM (5.1-fold). The first is the more potent here.

Compared with `COCCCOc1cc(C(=O)N(C(C)C)[C@@H]2CC[C@H](CCN(C(=O)Cc3cccc(NS(C)(=O)=O)c3)C3CC3)NC2)ccc1OC` [Example 81, N-((3R,6R)-6-{2-[Cyclopropyl({3-[(methylsulfonyl)amino]phenyl}acetyl)amino]-ethyl}piperidin-3-yl)-N-isopropyl-4-methoxy-3-(3-methoxypropoxy)benzamide trifluoroacetate], `COCCCCN1C(=O)C(C)(C)Oc2ccc(C(=O)N(C(C)C)[C@@H]3CCCNC3)cc21` [Example 126, N-Isopropyl-4-(4-methoxybutyl)-2,2-dimethyl-3-oxo-N-[(3R)-piperidin-3-yl]-3,4-dihydro-2H-1,4-benzoxazine-6-carboxyamide hydrochloride] is 17-fold higher in IC50: 1.3 nM for the first, 21.7 nM for the second.

tested on: plasma renin activity / blood pressure; assay: not given; conditions: clinical test in patients with hypertension; cited from earlier work

In the case of `COCCCOc1cc(C[C@@H](C[C@H](N)[C@@H](O)C[C@H](C(=O)NCC(C)(C)C(N)=O)C(C)C)C(C)C)ccc1OC` [aliskiren], the hypotensive activity is given as “excellent hypotensive activity comparable to other RA system inhibitors”.

In the case of `COCCCOc1cc(C[C@@H](C[C@H](N)[C@@H](O)C[C@H](C(=O)NCC(C)(C)C(N)=O)C(C)C)C(C)C)ccc1OC` [aliskiren], the plasma renin activity is listed as “significantly inhibits plasma renin activity”.
